According to article PMC9490041, “Determinants of affinity, specificity, and phase separation in a supramodule from Post-synaptic density protein 95” (iScience, 2022):
Read-outs that look alike come from different tables or passages of the source. Ends that are not written are not given here.

Legend:
Assay in all cases: FP displacement (competition) of FITC-15 AA CRIPT by library peptide, IC50 and Ki
[1] = target: PSG G322A G335A (PSD-95); settings: for IC50: read-out: IC50 (µM), PSG G322A G335A; for Ki: read-out: Ki (µM), PSG G322A G335A
[2] = target: PSG (PSD-95); settings: for IC50: read-out: IC50 (µM), PSG
[3] = target: PSG G322A (PSD-95); settings: for IC50: read-out: IC50 (µM), PSG G322A; for Ki: read-out: Ki (µM), PSG G322A
[4] = target: PDZ3 (PSD-95) (Homo sapiens, UniProt P78352)
PDZ3 (PSD-95), sequence (P78352 313-393 limits assumed): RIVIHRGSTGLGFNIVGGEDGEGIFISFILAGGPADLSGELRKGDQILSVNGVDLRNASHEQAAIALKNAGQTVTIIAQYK

[5] = target: PSG G335A (PSD-95); settings: for IC50: read-out: IC50 (µM), PSG G335A; for Ki: read-out: Ki (µM), PSG G335A
[6] = FP displacement of FITC-15 AA CRIPT probe by acetylated PSD library peptide (P-13 to P0 plus extra N-terminal Y)
[7] = FP displacement of FITC-15 AA CRIPT probe by acetylated PSD library peptide
[8] = FP displacement of 5 nM FITC-15 AA CRIPT by non-labeled acetylated peptide, room temperature, Ki from IC50, technical triplicates, PSG
[9] = read-out: Ki (µM), PSG, FP displacement of FITC-15 AA CRIPT probe by acetylated PSD library peptide
[10] = Ki (µM), PDZ3, FP displacement of FITC-15 AA CRIPT probe by acetylated PSD library peptide
[11] = Ki, FP displacement of 5 nM FITC-15 AA CRIPT by non-labeled acetylated peptide, room temperature, Ki from IC50, technical triplicates, PDZ3
[12] = FP displacement of FITC-15 AA CRIPT probe by PSD library peptide, protein PSG G322A G335A
[13] = FP displacement of FITC-15 AA CRIPT probe by PSD library peptide, protein PSG (wild type)
[14] = read-out: Ki (µM), PSG, FP displacement of FITC-15 AA CRIPT probe by PSD library peptide, protein PSG (wild type)
[15] = FP displacement of FITC-15 AA CRIPT probe by PSD library peptide, protein PSG G322A
[16] = Ki (µM), PDZ3, FP displacement of FITC-15 AA CRIPT probe by PSD library peptide, protein PDZ3
[17] = FP displacement of FITC-15 AA CRIPT probe by PSD library peptide, protein PSG G335A

IC50 [1, 6]	Ki [1, 7]	IC50 [2, 7]	Ki [2, 9]	IC50 [3, 7]	Ki [3, 7]	IC50 [5, 7]	Ki [5, 7]	IC50 [1, 12]	Ki [1, 12]	IC50 [2, 13]	Ki [2, 14]	IC50 [3, 15]	Ki [3, 15]	IC50 [5, 17]	Ki [5, 17]	Compound	other results
21 µM	7 µM	110 µM	46 µM	27 µM	12 µM	33 µM	12 µM	–	–	–	–	–	–	–	–	CC[C@H](C)[C@H](NC(=O)[C@H](CO)NC(=O)[C@H](CCC(N)=O)NC(=O)[C@H](CCCNC(=N)N)NC(=O)[C@H](CCCCN)NC(=O)[C@H](CO)NC(=O)[C@H](CC(=O)O)NC(=O)[C@@H]1CCCN1C(=O)[C@H](Cc1ccc(O)cc1)NC(C)=O)C(=O)N[C@@H](CC(C)C)C(=O)N[C@@H](Cc1ccccc1)C(=O)N[C@@H](CO)C(=O)N[C@H](C(=O)N[C@@H](CCC(=O)O)C(=O)N[C@H](C(=O)O)C(C)C)[C@@H](C)O [BCR]	Ki [2, 8]: < 75 µM; Ki [4, 10]: 42 µM; Ki [4, 11]: < 75 µM
–	–	–	–	–	–	–	–	82 µM	28 µM	200 µM	105 µM	99 µM	43 µM	90 µM	32 µM	CC(=O)N[C@@H](Cc1ccc(O)cc1)C(=O)N[C@@H](CCC(=O)O)C(=O)N[C@@H](CCC(=O)O)C(=O)N[C@@H](CCC(=O)O)C(=O)N[C@@H](CC(C)C)C(=O)N[C@@H](CCC(N)=O)C(=O)N[C@@H](CC(=O)O)C(=O)N[C@@H](CO)C(=O)N[C@@H](CCCNC(=N)N)C(=O)N[C@H](C(=O)N[C@@H](Cc1ccc(O)cc1)C(=O)N[C@H](C(=O)N[C@@H](CO)C(=O)N[C@@H](CO)C(=O)N[C@@H](CC(C)C)C(=O)O)C(C)C)C(C)C [CAC1C]	Ki [4, 16]: 449 µM
–	–	116 µM	49 µM	15 µM	6 µM	28 µM	10 µM	–	–	–	–	–	–	–	–	CC(=O)N[C@@H](Cc1ccc(O)cc1)C(=O)N[C@@H](C)C(=O)N[C@@H](CO)C(=O)N[C@@H](CC(N)=O)C(=O)N[C@H](C(=O)N[C@@H](CC(N)=O)C(=O)N[C@H](C(=O)N[C@@H](CC(C)C)C(=O)N[C@@H](CC(N)=O)C(=O)N[C@@H](CCCNC(=N)N)C(=O)N[C@@H](CCCCN)C(=O)N[C@H](C(=O)N[C@H](C(=O)N1CCC[C@H]1C(=O)N[C@H](C(=O)O)C(C)C)[C@@H](C)O)[C@@H](C)O)[C@@H](C)O)[C@@H](C)O [CCG8]	Ki [2, 8]: < 75 µM; IC50 [4]: 19 µM; Ki [4, 11]: < 75 µM
1630 µM	564 µM	1160 µM	493 µM	1450 µM	629 µM	1600 µM	569 µM	–	–	–	–	–	–	–	–	CC[C@H](C)[C@H](NC(=O)[C@@H](NC(=O)[C@H](CCCCN)NC(=O)[C@H](CCCCN)NC(=O)CNC(=O)[C@H](CC(C)C)NC(=O)[C@H](CCCCN)NC(=O)[C@H](C)NC(=O)[C@H](CCSC)NC(=O)[C@H](CCCNC(=N)N)NC(=O)[C@H](CCSC)NC(=O)[C@H](CCCNC(=N)N)NC(=O)[C@H](CC(C)C)NC(=O)[C@H](C)NC(=O)[C@H](Cc1ccc(O)cc1)NC(C)=O)C(C)C)C(=O)O [PALMD]	–
–	–	–	–	–	–	–	–	147 µM	51 µM	631 µM	269 µM	156 µM	68 µM	329 µM	117 µM	CC(=O)N[C@@H](Cc1ccc(O)cc1)C(=O)N[C@@H](CCCNC(=N)N)C(=O)N[C@@H](CCC(N)=O)C(=O)N1CCC[C@H]1C(=O)N[C@@H](CC(C)C)C(=O)N1CCC[C@H]1C(=O)N[C@@H](CC(=O)O)C(=O)N[C@@H](CO)C(=O)N[C@@H](CC(N)=O)C(=O)N1CCC[C@H]1C(=O)N[C@@H](CCC(=O)O)C(=O)N[C@@H](CCC(=O)O)C(=O)N[C@@H](CO)C(=O)N[C@@H](CO)C(=O)N[C@H](C(=O)O)C(C)C [SEM4C]	–
–	–	–	–	–	–	–	–	1680 µM	580 µM	1120 µM	475 µM	695 µM	301 µM	980 µM	349 µM	CC(=O)N[C@@H](Cc1ccc(O)cc1)C(=O)N1CCC[C@H]1C(=O)N[C@@H](CCC(N)=O)C(=O)N[C@@H](Cc1c[nH]cn1)C(=O)N[C@@H](CC(C)C)C(=O)N[C@@H](CCCNC(=N)N)C(=O)N[C@H](C(=O)N[C@@H](C)C(=O)N[C@@H](CO)C(=O)N[C@@H](CCCCN)C(=O)N[C@@H](CC(N)=O)C(=O)N[C@@H](CCC(=O)O)C(=O)N[C@H](C(=O)N[C@H](C(=O)N[C@H](C(=O)O)C(C)C)[C@@H](C)O)C(C)C)[C@@H](C)O [SHSA7]	–
–	–	–	–	–	–	–	–	435 µM	151 µM	1450 µM	765 µM	792 µM	343 µM	603 µM	215 µM	CC(=O)N[C@@H](Cc1ccc(O)cc1)C(=O)N[C@@H](CO)C(=O)N[C@@H](CO)C(=O)N[C@H](C(=O)N[C@@H](CO)C(=O)N1CCC[C@H]1C(=O)N[C@@H](CCC(N)=O)C(=O)N[C@@H](CO)C(=O)N[C@H](C(=O)N[C@@H](CC(=O)O)C(=O)N[C@@H](CCCCN)C(=O)N[C@@H](CO)C(=O)N[C@@H](CO)C(=O)N[C@H](C(=O)N[C@H](C(=O)O)C(C)C)[C@@H](C)O)[C@@H](C)O)[C@@H](C)O [SRGP2]	–
–	–	–	–	–	–	–	–	219 µM	76 µM	2070 µM	884 µM	489 µM	212 µM	729 µM	260 µM	CC(=O)N[C@@H](Cc1ccc(O)cc1)C(=O)N[C@@H](CC(C)C)C(=O)N[C@@H](C)C(=O)N[C@@H](CC(=O)O)C(=O)N[C@@H](CCC(=O)O)C(=O)N[C@H](C(=O)N[C@@H](CO)C(=O)N[C@@H](C)C(=O)N[C@@H](CO)C(=O)N[C@@H](CC(C)C)C(=O)N[C@@H](C)C(=O)N[C@@H](CCCCN)C(=O)N[C@@H](CCC(N)=O)C(=O)NCC(=O)N[C@@H](CC(C)C)C(=O)O)C(C)C [TAU]	–
73 µM	–	75 µM	31 µM	86 µM	37 µM	120 µM	43 µM	–	–	–	–	–	–	–	–	CC[C@H](C)[C@H](NC(=O)[C@H](CCC(=O)O)NC(=O)[C@H](CCC(=O)O)NC(=O)[C@@H](NC(=O)[C@@H](NC(=O)[C@H](CO)NC(=O)[C@H](CCC(=O)O)NC(=O)[C@H](Cc1ccc(O)cc1)NC(C)=O)[C@@H](C)O)[C@@H](C)O)C(=O)N[C@@H](CCC(=O)O)C(=O)N[C@@H](CC(C)C)C(=O)N[C@@H](CCC(=O)O)C(=O)N[C@@H](CC(=O)O)C(=O)N[C@H](C(=O)N[C@@H](CCC(=O)O)C(=O)N[C@@H](CS)C(=O)O)C(C)C [VSTM5]	Ki [2, 8]: < 75 µM
–	–	–	–	–	–	–	–	–	–	–	–	–	–	–	–	Ac-YDSIEIYIPEAQTRL [DLGP2]	IC50 [4]: 396 µM; Ki [4, 16]: 165 µM
536 µM	185 µM	1740 µM	743 µM	503 µM	218 µM	764 µM	272 µM	–	–	–	–	–	–	–	–	Ac-YLTGAPLATSDETSI [SEM4F]	–
997 µM	345 µM	1590 µM	679 µM	1550 µM	671 µM	1430 µM	510 µM	–	–	–	–	–	–	–	–	Ac-YPPSSPTLSVSSTSL [KLH17]	–
1320 µM	457 µM	2160 µM	923 µM	834 µM	362 µM	–	–	–	–	–	–	–	–	–	–	Ac-YQARRGKKKSGSLVL [RHOA]	Ki [4, 10]: 548 µM
